From US9034865B2, “Pyrido [4,3-B] indole and pyrido [3,4-B] indole derivatives and methods of use” (Medivation Technologies, Inc., priority 2010, dated 2015) come the findings set out here.

In the assay the target is T1, human recombinant serotonin (5-Hydroxytryptamine) 5-HT7 receptor (Homo sapiens, UniProt P34969).
T1 construct: expressed in transfected cells; host or cells: CHO
T1 sequence (P34969 whole entry): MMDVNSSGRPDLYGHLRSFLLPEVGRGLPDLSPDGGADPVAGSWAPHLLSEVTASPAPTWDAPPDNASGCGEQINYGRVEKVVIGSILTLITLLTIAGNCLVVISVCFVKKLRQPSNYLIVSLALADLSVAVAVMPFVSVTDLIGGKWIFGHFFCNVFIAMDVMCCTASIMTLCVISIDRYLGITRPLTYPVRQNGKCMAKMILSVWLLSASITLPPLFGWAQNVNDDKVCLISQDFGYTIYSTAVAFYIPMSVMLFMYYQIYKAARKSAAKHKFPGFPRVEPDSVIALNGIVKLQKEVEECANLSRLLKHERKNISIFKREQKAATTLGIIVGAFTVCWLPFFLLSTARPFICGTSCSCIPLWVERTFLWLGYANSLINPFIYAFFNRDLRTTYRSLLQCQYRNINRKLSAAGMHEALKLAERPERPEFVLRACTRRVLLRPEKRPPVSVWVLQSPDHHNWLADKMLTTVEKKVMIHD
Nature of the assay: Serotonin 5-HT7 radioligand binding ([3H]LSD). As to conditions: compound at 0.1 μM; read-out: Percentage inhibition of ligand binding, Serotonin (0.1 μM) 5-HT7. The method, then:
To evaluate in radioligand binding assays the activity of compounds of the invention, human recombinant serotonin (5-Hydroxytryptamine) 5-HT7 receptor expressed in Chinese hamster ovary (CHO) cells (Roth, B. et al, J. Pharmacol. Exp. Ther. 268:1403, 1994; Shen, Y. et al, J. Biol. Chem. 268:18200, 1993) in a modified Tris-HCl buffer (50 mM Tris-HCl, pH 7.4, 10 mM MgCl2, 0.5 mM EDTA) was used. Compounds of invention were incubated with 5.5 nM [^3H] Lysergic acid diethylamide (LSD) for 2 h at 25° C. Non-specific binding was estimated in the presence of 10 μM Serotonin (5-HT). Receptor proteins were filtered and washed, the filters were then counted to determine [^3H]LSD specifically bound. Compounds were screened at 1 μM or lower, using 1% DMSO as vehicle. Biochemical assay results are presented as the percent inhibition of specific binding in Table 4.
As usually defined, the inhibition is the change of the read-out against control, counted positive when it falls. For the molecule `Cc1cc(-c2ccc(F)cc2)c2c(c1)c1c(n2C)CCN(C)C1` [Compound 7], the inhibition at 0.1 µM was determined as 12%.
In the case of `Cc1cc(C#Cc2cccs2)c2[nH]c3c(c2c1)CN(C)CC3` [Compound 8] it was 6%; in that of `Cc1cc(-c2ccncc2)c2c(c1)c1c(n2C)CCN(C)C1` [Compound 9], 26%.
In the case of `C#Cc1cc(C)cc2c3c(n(C)c12)CCN(C)C3` [Compound 10, 6-Ethynyl-2,3,4,5-tetrahydro-2,5,8-trimethyl-1H-pyrido[4,3-b]indole] it was 14%; in that of `C/C(=C\c1cc(C)cc2c3c(n(C)c12)CCN(C)C3)c1ccncc1` [Compound 11], -17%; in that of `Cc1cc(C#Cc2ccc(C)nc2)c2c(c1)c1c(n2C)CCN(C)C1` [Compound 12, 2,3,4,5-tetrahydro-2,5,8-trimethyl-6-(2-(6-methylpyridin-3-yl)ethynyl)-1H-pyrido[4,3-b]indole], 5%.
In the case of `Cc1cc(CCc2ccc(C)nc2)c2c(c1)c1c(n2C)CCN(C)C1` [Compound 13] it was 16%; in that of `Cc1cc(/C=C/c2ccc(C)nc2)c2c(c1)c1c(n2C)CCN(C)C1` [Compound 14], 13%.
As for `C/C(=C\c1cc(C)cc2c3c(n(C)c12)CCN(C)C3)c1ccc(C)nc1` [Compound 15], the inhibition at 0.1 µM was 36%.
In the case of `Cc1cc(C#Cc2nccs2)c2[nH]c3c(c2c1)CN(C)CC3` [Compound 16] it was 35%.
Then `Cc1cc(C#Cc2ccncc2)c2c(c1)c1c(n2C)CCN(C)C1` [Compound 17], with 23%; and `Cc1ccc(C#Cc2cc(Cl)cc3c4c(n(C)c23)CCN(C)C4)cn1` [Compound 18], with 8%.
